Source: patent EP1509285B1, “SYNERGISTIC COMPOSITION OF TRANS-TETRACOS-15-ENOIC ACID AND APOCYNIN AND USE THEREOF” (COUNCIL OF SCIENTIFIC AND INDUSTRIAL RESEARCH, priority 2002, dated 2003)

How the values were obtained:
[1] = system: 'Acetaminophen' (APAP) induced hepatotoxicity; assay: Hepatoprotective activity (in vivo) against acetaminophen (paracetamol) induced hepatotoxicity after diethyl-ether inhalation; conditions: mice; for Serum parameters GOT / Serum parameters GPT: unit is µmole pyruvate/min/L; for hepatoprotective activity percent, ALP / hepatoprotective activity percent, Bilirubin / hepatoprotective activity percent, GOT / hepatoprotective activity percent, GPT / hepatoprotective activity percent, Glutathione / hepatoprotective activity percent, Lipid peroxidation / hepatoprotective activity percent, Triglycerides: APAP, 50 mg kg-1 p.o., H = [1-(TC-V/VC-V)] × 100
Method: i. Animals: The pharmacological studies are conducted on Wistar albino rats (150-180g) and Swiss albino mice (25-30g) of either sex, colony - bred in the Institute's animal house. After procurement, all the animals are divided into different groups and are left for one week for acclimatization to experimentation room and are maintained on standard conditions (23±2°C, 60-70 % relative humidity and 12 h photo period). The animals are fed with standard rodents pellet diet and water ad libitum. There are six animals in each group except for general behaviour and acute toxicity studies where ten animals are used in each group.
Paracetamol (APAP, acetaminophen): It is a therapeutic agent widely used as analgesic/antipyretic drug. When taken in large doses it causes hepatic necrosis which leads to biochemical changes having clinical features similar to those of acute viral hepatitis. The similar effect is observed in animals. The toxic effect can be potentiated if it is given several hours after the anesthetic ether inhalation (Wells et. al., 1986).
Liver injury is induced by injecting paracetamol (200 mg.kg^-1) interaperitoneally in normal saline (pH 9.4) six hour after inhalation of anesthetic ether (4ml/4min/6animals) in a closed chamber. The control animals received the equal volume of vehicle. (Table 2)
Freshly prepared suspension (1%, w/v) in 0.2% gum acacia in normal saline is used for all the experiments except for toxicity studies where (10 %, w/v) suspension is used. Silymarin suspension (1%, w/v) in 0.2 % gum acacia is used as a reference standard (positive control).
The doses of TCA and APO individually and in mixture, silymarin (50 mg/kg, p.o. each) and vehicle (normal saline) are fed to different groups of mice at 72 hours, 48 hours and 24 hours, 1 hour before diethyl ether inhalation and 1hour after hepatotoxin (paracetamol, 200 mg.kg^-1, i.p.) given 6 hours after exposure to diethyl- ether. Blood is collected from orbital sinus in all the animals 18 hours after last treatment and serum separated for different estimations. A portion of the liver is processed for histopathological studies. (Table 2)
• GPT and GOT: Pyruvate formed by transamination reaction is determined spectrophotometrically after reaction with 2,4-dinitrophenylhydrazine (Reitman and Frankel, 1957). • ALP : p-nitrophenol formed in alkaline medium is measured spectrophotometrically using p-nitrophenyl phosphate as substrate (Walter and Schutt, 1974). • Bilirubin : Total bilirubin is measured by diazotization reaction with NaNO2 (Malloy and Evelyn, 1937) • Triglycerides : Triglycerides from serum are extracted with isopropanol and sopanified with KOH. The liberated glycerol is converted to formaldehyde by periodate and determined after reaction with acetyl acetone. Triolein is used as standard (Neri and Firings, 1973). • Glutathione: It is determined after deproteination by reaction with DTNB (Ellman 1959 as modified by David 1987). • Lipid peroxidation: Thiobarbituric acid reacting substances are determined spectrophotometrically at 535 nm. Buege. and Aust. (1978).
Hepatoprotective activity (H) is calculated by the following equation: H = [1-(TC-V/VC-V)] × 100 [formula]
Where TC, VC, and V are drug + toxin, vehicle + toxin and vehicle treated groups of animals respectively.

[2] = system: galactosamine, paracetamol and CCl4 as hepatotoxins; assay: Earlier RRL Jammu study: hepatoprotective effect against galactosamine, paracetamol and CCl4 as hepatotoxins, silymarin as reference; format: in vivo; conditions: synthesized constituent; silymarin as reference material
[3] = 50 mg kg-1 p.o. at 72 h, 48 h, 24 h, 1h before diethyl-ether and 1 h after APAP 200 mg kg-1 i.p., mean ± S.E.

Compound	Hepatic parameters Glutathione [1, 3] [µ mole GSH/g liver]	Hepatic parameters Lipid peroxidation [1, 3] [n moles MDA/g liver]	Serum parameters ALP [1, 3]	Serum parameters Bilirubin [1, 3] [mg %]	Serum parameters Triglycerides [1, 3] [mg %]	Serum parameters GOT [1, 3] [Units]	Serum parameters GPT [1, 3] [Units]	hepatoprotective activity percent, ALP [1]	hepatoprotective activity percent, Bilirubin [1]	hepatoprotective activity percent, GOT [1]	hepatoprotective activity percent, GPT [1]	hepatoprotective activity percent, Glutathione [1]	hepatoprotective activity percent, Lipid peroxidation [1]	hepatoprotective activity percent, Triglycerides [1]	hepatoprotective effect against galactosamine, paracetamol and CCl4 as hepatotoxins [2]
COc1cc(C(C)=O)ccc1O [APO, Apocynin]	4.60±0.42	48.32±2.13	29.71±1.89 µ mole of p-nitroplenol formed/min/ L	0.43±0.01	30.50±1.36	755.04±112.04	1334.72±98.34	(67.91) percent	(42.59) percent	(36.07) percent	(42.27) percent	(42.60) percent	(38.34) percent	(36.68) percent	
CCCCCCCC/C=C/CCCCCCCCCCCCCC(=O)O [TCA, trans-tetracos-15-enoic acid]	4.59±0.45		34.95±1.89 µ mole of p-nitroplenol formed/min/ L	0.355±0.01	23.53±1.77	561.83±51.52	1008.04±63.66	(52.96) percent	(56.48) percent	(54.92) percent	(57.99) percent	(42.35) percent	(55.48) percent	(66.05) percent	dose related hepatoprotective effect
